{"source": "patent US12697748B2", "about": "“Wood treatment compositions having antimicrobial properties” (Société en Commandite Prolam, priority 2022, dated 2026)", "assay_type_in_all_cases": "cell-based", "key": {"[1]": {"test_system": "Escherichia coli ATCC 11229", "assay": "Qualitative antibacterial effect, inhibition zone after 48 h (Example 6)", "conditions": "filter (diameter 10 mm)", "experimental": "Cubic pieces of Maplewood of about 1 cm of thickness with a surface of about […] were provided. For Sample Y, the pieces were heated on a heating plate at 230° C. for about 45 seconds, and dipped into the tannin solution for about 25 seconds, again heated on the heating plate for about 45 seconds and dipped in paraffin at 65° C. for about 25 seconds. For Sample X, the pieces were heated on a heating plate for about 45 seconds, and dipped into the tannin solution for about 25 seconds.\nAfter the above impregnation, manual vaporization of the Tanac Weibull™ solution was also conducted. Samples X and Y were sprayed five times each, with 24 h between each spray.\nThe growth inhibition for Escherichia coli ATCC 11229 was determined. A culture of the microorganism was spread at the surface of Tryptic Soy agar (TSA) nutrient gel. Treated wood cubic pieces of about 3 mm of thickness with a surface of about 1 cm^2, as prepared above. The wooden pieces of Sample X (duplicated) were then rehumidified with water, Sample Y was not rehumidified and two Samples Z (no treated) were used: as is and rehumidified. Each piece was deposited on the nutrient gel, treated face down, contacting the gel. […] After the incubation period, the growth inhibition zone was measured and the incubation pursued at 48 h to evaluate the growth under the wooden cubes after the prolonged incubation."}, "[2]": {"test_system": "Staphylococcus aureus ATCC 6538", "assay": "Growth inhibition zone of treated wood pieces on TSA nutrient gel", "conditions": "24 h at 36° C.", "experimental": "(§1) Cubic pieces of Maplewood of about 3 mm of thickness with a surface of about 1 cm^2 were provided. For Sample A, the pieces were heated on a heating plate at 230° C. for about 45 seconds, and dipped into the tannin solution for about 25 seconds, again heated on the heating plate for about 45 seconds and dipped in paraffin at 65° C. for about 25 seconds. For Sample B, the pieces were heated on a heating plate for about 45 seconds, and dipped into the tannin solution for about 25 seconds. The impregnation rate was calculated to be around 645 g/m^2 (60 g/pi^2).\n(§2) The growth inhibition for Escherichia coli ATCC 11229 and Staphylococcus aureus ATCC 6538 was first determined. A culture of each microorganism was spread at the surface of Tryptic Soy agar (TSA) nutrient gel. Treated wood was cut into cubic pieces of about 3 mm of thickness with a surface of about 1 cm^2, as prepared above. Each piece was deposited on the nutrient gel, treated face down, contacting the gel, and using two pieces for each microorganism. The petri dishes containing the nutrient gel were closed and incubated for 24 h at 36° C. Sterile filters moistened with demineralized water and with a mercury chloride 0.018 mol/L solution were used and tested as negative and positive controls, respectively. After the incubation period, the growth inhibition zone was measured, and the incubation pursued for three (3) additional days to evaluate the growth under the wooden cubes after the prolonged incubation.\n(§3) Cubic pieces of Maplewood of about 1 cm of thickness with a surface of about […] were provided. For Samples 1 and 2, the pieces were heated on a heating plate at 230° C. for about 45 seconds, and dipped into the tannin solution for about 25 seconds, again heated on the heating plate for about 45 seconds and dipped in paraffin at 65° C. for about 25 seconds. For Samples 4 and 5, the pieces were heated on a heating plate for about 45 seconds, and dipped into the tannin solution for about 25 seconds. The impregnation rate was calculated to be around 301 g/m^2 (28 g/pi^2). […]"}, "[3]": {"test_system": "Escherichia coli ATCC 11229", "assay": "Growth inhibition zone of treated wood pieces on TSA nutrient gel", "conditions": "24 h at 36° C., listed as Negative control", "experimental": "as §1, §2, §3"}}, "data": [{"molecule": "[Cl][Hg][Cl]", "note": "[Positive control, mercury chloride]", "values": [{"measurement": "Diameter of the inhibition zone after 48 h", "setting": "[1]", "value": 22, "unit": "mm"}, {"measurement": "Diameter of the inhibition zone", "setting": "[2]", "value": 32, "unit": "mm"}, {"measurement": "Diameter of the inhibition zone", "setting": "[2]; listed as Negative control", "value": 25, "unit": "mm"}, {"measurement": "Diameter of the inhibition zone", "setting": "[3]", "value": 23, "unit": "mm"}]}]}
